Data published in patent US11078216B2, “Bisaryl amides as NRF2 activators” (GLAXOSMITHKLINE INTELLECTUAL PROPERTY DEVELOPMENT LIMITED, priority 2016, dated 2021).
Read-outs that look alike come from different tables or passages of the source.

Tests used:
[1] = tested on: NRF2 (NQO1 activity as marker for NRF2 activation), BEAS-2B cells; test: BEAS-2B NQO1 MTT Assay; type: cell-based; conditions: EC50 of NQO1 specific activity induction, 48 hours incubation, read-out: EC50
Procedure, shortened: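 BEAS-2B cells were exposed to compound for 48 h at 37° C, 5% CO2, then lysed. NQO1 activity was measured kinetically by MTT reduction at 570 nm over 30 minutes; EC50 came from 3-parameter fit of Delta OD/min versus log concentration.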

rats [2] = conditions: rats on a choline-deficient L-amino acid-defined diet; cited from earlier work
[3] = tested on: COPD macrophages and alveolar macrophages from cigarette smoke-exposed mice; conditions: cited from earlier work
rats [4] = conditions: cerebral ischemia-reperfusion model; cited from earlier work
mice = conditions: NRF2 wild-type vs KO mice after administration; cited from earlier work

Molecule: CC[C@@H]1CN(Cc2cc([C@@H](c3ccc4c(nnn4CC)c3C)C(C)(C)C(=O)NC(CC(=O)O)C(=O)O)ccc2C)S(=O)(=O)c2ccccc2O1 (stereo partly drawn) [Example 202, 2-((S)-3-(3-(((R)-4-ethyl-1,1-dioxido-3,4-dihydro-2H-benzo[b][1,4,5]oxathiazepin-2-yl)methyl)-4-methylphenyl)-3-(1-ethyl-4-methyl-1H-benzo[d][1,2,3]triazol-5-yl)-2,2-dimethylpropanamido)succinic acid]
- EC50 ([1]; Homo sapiens): 1 to 10 nM

Molecule: CC[C@@H]1CN(Cc2cc([C@@H](c3ccc4c(nnn4CC)c3C)C(C)(C)C(=O)NC(CC(=O)O)CC(=O)O)ccc2C)S(=O)(=O)c2ccccc2O1 [Example 203, 3-((S)-3-(3-(((R)-4-ethyl-1,1-dioxido-3,4-dihydro-2H-benzo[b][1,4,5]oxathiazepin-2-yl)methyl)-4-methylphenyl)-3-(1-ethyl-4-methyl-1H-benzo[d][1,2,3]triazol-5-yl)-2,2-dimethylpropanamido)pentanedioic acid]
- EC50 ([1]; Homo sapiens): 1000 to 10000 nM

Molecule: CC[C@@H]1CN(Cc2cc([C@@H](c3ccc4c(nnn4CC)c3C)C(C)(C)C(=O)NC(CC(=O)O)c3ccncc3)ccc2C)S(=O)(=O)c2ccccc2O1 (stereo partly drawn) [Example 204, 3-((S)-3-(3-(((R)-4-ethyl-1,1-dioxido-3,4-dihydro-2H-benzo[b][1,4,5]oxathiazepin-2-yl)methyl)-4-methylphenyl)-3-(1-ethyl-4-methyl-1H-benzo[d][1,2,3]triazol-5-yl)-2,2-dimethylpropanamido)-3-(pyridin-4-yl)propanoic acid]
- EC50 ([1]; Homo sapiens): 100 to 1000 nM

Molecule: CC[C@@H]1CN(Cc2cc([C@@H](c3ccc4c(nnn4CC)c3C)C(C)(C)C(=O)NC(C)C(=O)O)ccc2C)S(=O)(=O)c2ccccc2O1 (stereo partly drawn) [Example 205, 2-((S)-3-(3-(((R)-4-ethyl-1,1-dioxido-3,4-dihydro-2H-benzo[b][1,4,5]oxathiazepin-2-yl)methyl)-4-methylphenyl)-3-(1-ethyl-4-methyl-1H-benzo[d][1,2,3]triazol-5-yl)-2,2-dimethylpropanamido)propanoic acid]
- EC50 ([1]; Homo sapiens): 100 to 1000 nM

Molecule: CC[C@@H]1CN(Cc2cc([C@@H](c3ccc4c(nnn4CC)c3C)C(C)(C)C(=O)NCCC(F)(F)F)ccc2C)S(=O)(=O)c2ccccc2O1 [Example 206, (S)-3-(3-(((R)-4-ethyl-1,1-dioxido-3,4-dihydro-2H-benzo[b][1,4,5]oxathiazepin-2-yl)methyl)-4-methylphenyl)-3-(1-ethyl-4-methyl-1H-benzo[d][1,2,3]triazol-5-yl)-2,2-dimethyl-N-(3,3,3-trifluoropropyl)propanamide]
- EC50 ([1]; Homo sapiens): 10 to 100 nM

Molecule: CC[C@@H]1CN(Cc2cc([C@@H](c3ccc4c(nnn4CC)c3C)C(C)(C)C(=O)NC(C)(C)C(=O)O)ccc2C)S(=O)(=O)c2ccccc2O1 [Example 207, 2-((S)-3-(3-(((R)-4-ethyl-1,1-dioxido-3,4-dihydro-2H-benzo[b][1,4,5]oxathiazepin-2-yl)methyl)-4-methylphenyl)-3-(1-ethyl-4-methyl-1H-benzo[d][1,2,3]triazol-5-yl)-2,2-dimethylpropanamido)-2-methylpropanoic acid]
- EC50 ([1]; Homo sapiens): 100 to 1000 nM

Molecule: CC[C@@H]1CN(Cc2cc([C@@H](c3ccc4c(nnn4CC)c3C)C(C)(C)C(=O)NCC(N)=O)ccc2C)S(=O)(=O)c2ccccc2O1 [Example 208, (S)-N-(2-amino-2-oxoethyl)-3-(3-(((R)-4-ethyl-1,1-dioxido-3,4-dihydro-2H-benzo[b][1,4,5]oxathiazepin-2-yl)methyl)-4-methylphenyl)-3-(1-ethyl-4-methyl-1H-benzo[d][1,2,3]triazol-5-yl)-2,2-dimethylpropanamide]
- EC50 ([1]; Homo sapiens): 10 to 100 nM

Molecule: CC[C@@H]1CN(Cc2cc([C@@H](c3ccc4c(nnn4CC)c3C)C(C)(C)C(=O)N[C@@H](CCC(=O)O)C(=O)O)ccc2C)S(=O)(=O)c2ccccc2O1 [Example 209, (S)-2-((S)-3-(3-(((R)-4-ethyl-1,1-dioxido-3,4-dihydro-2H-benzo[b][1,4,5]oxathiazepin-2-yl)methyl)-4-methylphenyl)-3-(1-ethyl-4-methyl-1H-benzo[d][1,2,3]triazol-5-yl)-2,2-dimethylpropanamido)pentanedioic acid]
- EC50 ([1]; Homo sapiens): 1000 to 10000 nM

Molecule: CC[C@@H]1CN(Cc2cc([C@@H](c3ccc4c(nnn4CC)c3C)C(C)(C)C(=O)N[C@H](CCC(=O)O)C(=O)O)ccc2C)S(=O)(=O)c2ccccc2O1 [Example 210, (R)-2-((S)-3-(3-(((R)-4-ethyl-1,1-dioxido-3,4-dihydro-2H-benzo[b][1,4,5]oxathiazepin-2-yl)methyl)-4-methylphenyl)-3-(1-ethyl-4-methyl-1H-benzo[d][1,2,3]triazol-5-yl)-2,2-dimethylpropanamido)pentanedioic acid]
- EC50 ([1]; Homo sapiens): 100 to 1000 nM

Molecule: CC[C@@H]1CN(Cc2cc([C@@H](c3ccc4c(nnn4CC)c3C)C(C)(C)C(=O)N[C@@H](CC(N)=O)C(=O)O)ccc2C)S(=O)(=O)c2ccccc2O1 [Example 211, (S)-4-amino-2-((S)-3-(3-(((R)-4-ethyl-1,1-dioxido-3,4-dihydro-2H-benzo[b][1,4,5]oxathiazepin-2-yl)methyl)-4-methylphenyl)-3-(1-ethyl-4-methyl-1H-benzo[d][1,2,3]triazol-5-yl)-2,2-dimethylpropanamido)-4-oxobutanoic acid]
- EC50 ([1]; Homo sapiens): 1000 to 10000 nM

Molecule: CC[C@@H]1CN(Cc2cc([C@@H](c3ccc4c(nnn4CC)c3C)C(C)(C)C(=O)N[C@H](CC(N)=O)C(=O)O)ccc2C)S(=O)(=O)c2ccccc2O1 [Example 212, (R)-4-amino-2-((S)-3-(3-(((R)-4-ethyl-1,1-dioxido-3,4-dihydro-2H-benzo[b][1,4,5]oxathiazepin-2-yl)methyl)-4-methylphenyl)-3-(1-ethyl-4-methyl-1H-benzo[d][1,2,3]triazol-5-yl)-2,2-dimethylpropanamido)-4-oxobutanoic acid]
- EC50 ([1]; Homo sapiens): 100 to 1000 nM

Molecule: CC[C@@H]1CN(Cc2cc([C@@H](c3ccc4c(nnn4CC)c3C)C(C)(C)C(=O)N(CCC(=O)O)CC(=O)O)ccc2C)S(=O)(=O)c2ccccc2O1 [Example 213, 3-((S)-N-(carboxymethyl)-3-(3-(((R)-4-ethyl-1,1-dioxido-3,4-dihydro-2H-benzo[b][1,4,5]oxathiazepin-2-yl)methyl)-4-methylphenyl)-3-(1-ethyl-4-methyl-1H-benzo[d][1,2,3]triazol-5-yl)-2,2-dimethylpropanamido)propanoic acid]
- EC50 ([1]; Homo sapiens): 10 to 100 nM

Molecule: O=C(NCc1ccccn1)Nc1nnc(-c2ccco2)o1 [NK-252]
- progression of histologic abnormalities, especially hepatic fibrosis (rats [2]): significantly attenuated

Molecule: C[S+]([O-])CCCCN=C=S (stereo not shown) [Sulforaphane]
- expression of Macrophage Receptor with Collagenous structure (MARCO) ([3]; COPD macrophages and alveolar macrophages from cigarette smoke-exposed mice): increases
- bacterial phagocytosis and bacterial clearance ([3]; Pseudomonas aeruginosa, non-typable Haemophilus influenzae, ex vivo and in vivo): improving

Molecule: Cc1c(-c2cnccn2)ssc1=S [oltipraz]
- progression of histologic abnormalities, especially hepatic fibrosis (rats [2]): significantly attenuated

Molecule: CC(C)(C)c1cc(O)ccc1O [tBHQ, tert-butylhydroquinone]
- cortical damage (rats [4]): reduced cortical damage
- cortical glutathione levels (mice): increased in NRF2 wild-type but not KO mice

Molecule: (S)-3-(1,4-Dimethyl-1H-benzo[d][1,2,3]triazol-5-yl)-3-(3-(((R)-2-ethyl-2,3-dihydropyrido[3,44][1,4]oxazepin-4(5H)-yl)methyl)-4-methylphenyl)-2,2-dimethyl-N-(pyridin-3-yl)propanamide [Example 111]
- EC50 [1]: 100 to 1000 nM
